According to patent US20250230151A1, “COMPOUNDS FOR CANCERS DRIVEN BY BRAF MUTATION” (THE BOARD OF TRUSTEES OF THE UNIVERSITY OF ILLINOIS, priority 2021, published 2025):
Like-named read-outs stand apart in the source and are kept apart here.

Tests used:
P-gp = biological target: T1, P-gp (Homo sapiens, UniProt P08183); assay: MDR1-MDCK P-gp transwell bidirectional transport assay; format: in vitro ADME; conditions: 10 μM, 90 min; for Papp A→B at 90 min, 10 µM / Papp B→A at 90 min, 10 µM / efflux ratio at 90 min, 10 µM: dog, MDCK-MDR1, MDR1-MDCK; for efflux ratio at 90 min, 10 µM: read-out: ER (efflux ratio) (converted)
T1 construct: host or cells: MDCK (MDR1-MDCK)
Experimental: A novel compound collection composed of complex and diverse compounds derived from natural products, termed “Complexity-to-Diversity Collection” was employed. […] The CtD compounds were evaluated by the efflux pump and their permeability using the P-gp transwell assay using adapted and optimized known protocols. Compound transport across epithelial cells overexpressing P-gp from basolateral-to-apical and apical-to-basolateral directions were quantified to calculate permeability and efflux ratio.
P-gp transwell bidirectional transport assays. Unless noted otherwise, the transport assay was performed in triplicate in batches of 16 or 24 test compounds, with each batch containing quinidine as a substrate control and propranolol as a non-substrate control. MDR1-MDCK cells were plated at a density of 300,000 cells/cm^2 onto 96-well Falcon™ Multiwell Insert System with 1 µm pore polycarbonate filters with angled-bottom receiver plates (Coming) and were fed with the cell growth medium on day 2.
The donor solution was prepared by adding 1 mM DMSO stocks of compounds to make the final concentration […], and the receiver solution was prepared with equivalent volume of DMSO to make 1% DMSO in final assay chamber volumes.
After 80-96 hours since seeding, the growth media on both sides was aspirated. To the transwell plate (apical side), 50 μL of receiver and donor solutions prepared on a 96-well plate were added, and it was placed on top of a separate angled-bottom 96-well plate (basolateral side) containing 260 μL of receiver and donor solutions.
Following 90 minutes of incubation at 37° C. with shaking at 90 rpm, 20 μL aliquot of samples were taken from both the donor and receiver chambers, and the apical and basolateral sides. Aliquots of 4 test compounds were pooled for each category: apical-donor, apical-receiver, basolateral-donor, basolateral-receiver. To measure CO and mass balance, initial donor samples from both apical and basolateral side were set aside from the assay plate. Acetonitrile twice the volume of pooled samples was added and mixed thoroughly, and precipitated proteins were removed by centrifugation at 20,000 r.c.f for 10 minutes.
To ascertain the MDCK monolayer integrity, the solution on apical side contained 100 µM Lucifer Yellow (Millipore-Sigma). After 90 minutes of compound transport, Lucifer Yellow concentration in the basal well was measured using SpectraMax M3 (Molecular Devices) set to an excitation wavelength of 430 nm and an emission wavelength of 540 nm.
Samples were analyzed with the 5500 QTRAP LC/MS/MS system (AB Sciex) with a 1200 series HPLC system (Agilent Technologies) including a degasser, an autosampler, and a binary pump. The liquid chromatography separation was performed on an Agilent SB-Aq column (4.6×50 mm, 5 μm) (Agilent Technologies) with mobile phase A (0.1% formic acid in water) and mobile phase B (0.1% formic acid in acetonitrile). The flow rate was 0.3 ml min^−1. The linear gradient was optimized for each compound. The autosampler was set at 5° C. The injection volume was 15 μL. Mass spectra were acquired with both positive electrospray ionization at the ion spray voltage of 5,500 V and negative electrospray ionization at the ion spray voltage of −4,500 V. The source temperature was 450° C. The curtain gas, ion source gas 1, and ion source gas 2 were 33, 50 and 65, respectively. Multiple reaction monitoring was used to quantify metabolites.
Efflux data calculations.

A375 cells = assay: 72-hour cell viability assay (Alamar Blue), A375; format: cell-based, human; conditions: Homo sapiens; for IC50: 72-hour incubation, Alamar Blue, V600E BRAF
Experimental: (§1) Cell Culture and reagents. All cell lines were grown in a 37° C., 5% CO2, humidified environment, in media containing 1% penicillin/streptomycin. Cell culture conditions are as follows: MDCK cells transfected with MDR1 (or ABCB1) were obtained from the Netherlands Cancer Institute (Amsterdam, The Netherlands) and maintained in DMEM with 10% fetal bovine serum (FBS, Gemini). Traditional cell lines A375, CHL-1, B16F10, and U118MG were grown in DMEM with 10% FBS, SK-MEL-28, U87 and T98G in EMEM with 10% FBS, AM-38 in EMEM with 20% HI-FBS (Gibco), HT29 in McCoy's 5A with 10% FBS, HCT116 in RPMI with 10% FBS. Compounds were dissolved in DMSO (1% final concentration, Sigma-Aldrich) for cell culture studies.
(§2) Cell viability assays. Cells were harvested, seeded in a 96-well plate and allowed to adhere overnight. Compound was added to each well in DMSO (1% final concentration). Cells were incubated for 72 hours before viability was assessed by the Alamar Blue Assay. Raptinal ([…]) was used as a dead control.

HCT116 cells = assay: 72-hour cell viability assay (Alamar Blue), HCT116; format: cell-based; conditions: Homo sapiens, HCT-116, WT BRAF
Experimental: as §1, §2

SK-MEL-28 cells = assay: 72-hour cell viability assay (Alamar Blue), SK-MEL-28; format: cell-based; conditions: Homo sapiens, SK-MEL-28, V600E BRAF, melanoma
Experimental: as §1, §2

[1] = Blood-brain barrier penetrance, brain and serum levels after single IV injection; format: in vivo; conditions: CD-1, mouse, 60 min after single 25 mg/kg IV injection, read-out: brain-to-serum ratio
Experimental: Blood-brain barrier penetrance P-gp in vivo assays. All experimental procedures were reviewed and approved by the University of Illinois Institutional Animal Care and Use Committee (Protocol number: 19191). CD-1 mice were purchased from Charles River and acclimated for 4-7 days before use. Mice were administered elacridar or its vehicle at 2.5 mg/kg via lateral tail vein injection. Thirty-minutes post injection, mice were then treated with compounds at 25 mg/kg intravenously now in the other tail vein. At each time point, mice were sacrificed and blood was collected by lacerating the right auricle with iris scissors. An 18-gauge angiocatheter was inserted through the left ventricle, and all residual circulatory volume was removed by perfusing 0.9% saline solution via an analog peristaltic pump. Brains were harvested from the cranial vault and flash frozen. Blood samples were centrifuged at 13,000 ref for 10 minutes and the supernatant serum was stored at −80° C. until analysis. Brain samples were homogenized in ice-cold methanol and centrifuged first at 2000 ref for three minutes and then 13,000 ref for ten minutes and supernatant and tissue debris were separated and stored at −80° C. The resultant supernatant and serum were analyzed by LC-MS/MS to determine compound concentrations. […] All compounds were administered at 5 mL/kg.

[2] = test system: MAPK signaling (phospho-MEK1/2, phospho-ERK1/2) in A375 cells; assay: Immunoblotting of MEK1/2 and ERK1/2 phosphorylation, A375; format: cell-based, human; conditions: A375, highest concentrations (10 μM), 24 h
Experimental: Immunoblotting. Cells were lysed using RIPA buffer containing phosphatase (BioVision) and protease inhibitor cocktail (Calbiochem). Protein concentration was determined using the BCA assay (Pierce). Cell lysates containing […] of protein were loaded into each lane of 4% to 20% gradient gels (Bio-Rad) for SDS-PAGE. Proteins were transferred onto PDVF membrane for Western blot analysis. Blots were blocked with BSA for one hour followed by incubation with primary antibody overnight (dilution according to manufacturer's protocols), and then secondary antibody was incubated for one hour. Blots were then imaged with a ChemiDoc Touch (Bio-Rad) after incubation with SuperSignal West Pico Solution (ThermoFischer) following manufacturer's protocols. All antibodies were purchased from Cell Signaling Technology: p-ERK (9101S), ERK (4695S), p-MEK (9121S), MEK (8727S), vinculin (13901S) Rabbit IgG-HRP (7074), […] (5125).

U87 cells = assay: 72-hour cell viability assay (Alamar Blue), U87; format: cell-based; conditions: Homo sapiens, WT BRAF
Experimental: as §1, §2

HT29 cells = assay: 72-hour cell viability assay (Alamar Blue), HT29; format: cell-based; conditions: Homo sapiens, HT-29, V600E BRAF, colon
Experimental: as §1, §2

AM-38 cells = assay: 72-hour cell viability assay (Alamar Blue), AM-38; format: cell-based; conditions: Homo sapiens, AM-38, V600E BRAF, glioma
Experimental: as §1, §2

U118MG cells = assay: 72-hour cell viability assay (Alamar Blue), U118MG; format: cell-based; conditions: Homo sapiens, U-118-MG, WT BRAF
Experimental: as §1, §2

CHL-1 cells = assay: 72-hour cell viability assay (Alamar Blue), CHL-1; format: cell-based; conditions: Homo sapiens, CHL-1, WT BRAF
Experimental: as §1, §2

T98G cells = assay: 72-hour cell viability assay (Alamar Blue), T98G; format: cell-based; conditions: Homo sapiens, T98G, WT BRAF, read-out: T98G IC50
Experimental: as §1, §2

B16F10 cells = assay: 72-hour cell viability assay (Alamar Blue), B16F10; format: cell-based; conditions: Mus musculus, B16-F10, WT BRAF, read-out: B16F10 IC50
Experimental: as §1, §2

[3] = colon, read-out: HCT116 (WT) IC50

T1 sequence (P08183 whole entry): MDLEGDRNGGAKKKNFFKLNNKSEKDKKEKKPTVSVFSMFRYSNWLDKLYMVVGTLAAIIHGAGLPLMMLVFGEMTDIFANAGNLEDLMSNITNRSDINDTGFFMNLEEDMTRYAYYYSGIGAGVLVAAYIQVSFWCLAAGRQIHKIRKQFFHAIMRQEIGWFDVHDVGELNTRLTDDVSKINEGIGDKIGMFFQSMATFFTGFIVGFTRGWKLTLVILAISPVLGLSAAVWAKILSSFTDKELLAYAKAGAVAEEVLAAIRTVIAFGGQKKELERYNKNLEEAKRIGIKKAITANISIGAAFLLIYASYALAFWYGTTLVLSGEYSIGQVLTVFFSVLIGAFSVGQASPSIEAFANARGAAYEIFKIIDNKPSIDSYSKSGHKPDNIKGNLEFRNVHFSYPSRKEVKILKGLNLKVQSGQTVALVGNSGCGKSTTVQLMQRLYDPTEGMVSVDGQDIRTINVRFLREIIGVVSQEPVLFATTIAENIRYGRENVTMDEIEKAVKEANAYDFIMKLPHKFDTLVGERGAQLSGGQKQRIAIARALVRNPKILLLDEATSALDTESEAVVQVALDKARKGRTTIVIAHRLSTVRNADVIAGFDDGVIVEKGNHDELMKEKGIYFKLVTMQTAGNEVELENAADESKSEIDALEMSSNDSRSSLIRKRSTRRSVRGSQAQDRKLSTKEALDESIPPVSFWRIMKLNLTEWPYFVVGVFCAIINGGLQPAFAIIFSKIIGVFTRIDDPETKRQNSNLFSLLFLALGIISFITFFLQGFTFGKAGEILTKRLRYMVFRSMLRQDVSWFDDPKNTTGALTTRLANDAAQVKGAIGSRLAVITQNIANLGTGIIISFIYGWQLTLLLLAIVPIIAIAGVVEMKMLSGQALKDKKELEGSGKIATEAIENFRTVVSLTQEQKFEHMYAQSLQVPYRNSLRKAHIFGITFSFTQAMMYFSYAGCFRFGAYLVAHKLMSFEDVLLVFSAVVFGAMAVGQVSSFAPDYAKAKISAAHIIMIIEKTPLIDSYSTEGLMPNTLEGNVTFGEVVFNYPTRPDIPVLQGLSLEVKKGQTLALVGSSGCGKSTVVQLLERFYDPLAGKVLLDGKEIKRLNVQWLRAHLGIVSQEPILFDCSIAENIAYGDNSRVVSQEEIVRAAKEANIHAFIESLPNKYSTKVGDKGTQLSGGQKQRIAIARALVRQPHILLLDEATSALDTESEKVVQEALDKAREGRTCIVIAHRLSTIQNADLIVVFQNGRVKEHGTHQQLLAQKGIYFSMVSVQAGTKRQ

SMILES | Papp A→B at 90 min, 10 µM (P-gp) | Papp B→A at 90 min, 10 µM (P-gp) | IC50 (A375 cells; A-375, 72 h) | IC50 (HCT116 cells; [3]) | IC50 (SK-MEL-28 cells) | other results
CC(C)(C)c1nc(-c2c(F)ccc(NS(=O)(=O)c3cc(C(F)(F)F)ccc3C(F)(F)F)c2F)c(-c2ccnc(NCCCCC(=O)O)n2)s1 [6-150, 5-((4-(4-(3-((2,5-bis(trifluoromethyl)phenyl)sulfonamido)-2,6-difluorophenyl)-2-(tert-butyl)thiazol-5-yl)pyrimidin-2-yl)amino)pentanoic acid] | 5.18 nm/s | 3.98 ± 1.49 nm/s | > 50 µM | – | – | efflux ratio at 90 min, 10 µM (P-gp): 0.6
CC(C)(C)c1nc(-c2cccc(NS(=O)(=O)c3c(F)cccc3F)c2F)c(-c2ccnc(CCCC(=O)O)n2)s1 [6-191, 4-(4-(2-(tert-butyl)-4-(3-((2,6-difluorophenyl)sulfonamido)-2-fluorophenyl)thiazol-5-yl)pyrimidin-2-yl)butanoic acid] | – | 14.5 ± 1.72 nm/s | 0.558 ± 0.118 µM | – | – | Emax (A375 cells; A-375, A375, 72-hour incubation): 60%
CCCS(=O)(=O)Nc1ccc(F)c(C(=O)c2c[nH]c3ncc(Cl)cc23)c1F [PLX4720, reference compound] | – | – | – | – | – | Kp at 60 min [1]: 0.0014 to 0.0069; inhibition of ERK1/2 phosphorylation after 24 h [2]: diminished inhibition
CCCS(=O)(=O)Nc1ccc(F)c(C(=O)c2c[nH]c3ncc(-c4ccc(Cl)cc4)cc23)c1F [Vemurafenib, reference compound] | 6.67 ± 1.1 nm/s | 38.1 ± 0.63 nm/s | – | 27 µM | – | IC50 (U87 cells; U-87 MG, read-out: U87 IC50): > 10 µM; IC50 (U87 cells; glioma, read-out: U87 (WT) IC50): > 10 µM; efflux ratio at 90 min, 10 µM (P-gp): 5.92 ± 0.77; IC50 (HCT116 cells; read-out: HCT116 IC50): > 10 µM; IC50 (HT29 cells): 0.24 ± 0.0617 µM; IC50 (AM-38 cells): 0.344 ± 0.0593 µM; IC50 (U118MG cells; glioma, read-out: U118MG (WT) IC50): > 10 µM; IC50 (U118MG cells; read-out: U118MG IC50): > 10 µM; IC50 (CHL-1 cells; melanoma, read-out: CHL-1 (WT) IC50): > 10 µM; IC50 (CHL-1 cells; read-out: CHL-1 IC50): > 10 µM; IC50 (T98G cells): > 10 µM; IC50 (B16F10 cells): > 10 µM; IC50 (A375 cells; A-375): 0.331 ± 0.093 µM

Now from value to compound, other results behind:

Papp A→B at 90 min, 10 µM (P-gp) | Papp B→A at 90 min, 10 µM (P-gp) | IC50 (A375 cells; A-375, 72 h) | IC50 (HCT116 cells; [3]) | IC50 (SK-MEL-28 cells) | SMILES | other results
– | 4.6 ± 0.86 nm/s | > 50 µM | – | – | CC(C)(C)c1nc(-c2cccc(NS(=O)(=O)c3cc(C(F)(F)F)ccc3C(F)(F)F)c2F)c(-c2ccnc(NCCCCC(=O)O)n2)s1 [6-173, 5-((4-(4-(3-((2,5-bis(trifluoromethyl)phenyl)sulfonamido)-2-fluorophenyl)-2-(tert-butyl)thiazol-5-yl)pyrimidin-2-yl)amino)pentanoic acid] | –
– | 17.9 ± 0.64 nm/s | 14.7 ± 6.16 µM | – | – | CC(C)(C)c1nc(-c2c(F)ccc(NS(=O)(=O)c3ccc(F)cc3C(F)(F)F)c2F)c(-c2ccnc(NCCCCC(=O)O)n2)s1 [6-179, 5-((4-(2-(tert-butyl)-4-(2,6-difluoro-3-((4-fluoro-2-(trifluoromethyl)phenyl)sulfonamido)phenyl)thiazol-5-yl)pyrimidin-2-yl)amino)pentanoic acid] | –
– | – | 0.113 ± 0.0107 µM | 8.84 µM | 0.124 ± 0.00486 µM | CCCS(=O)(=O)Nc1cc(Cl)cc(-c2nc(C(C)(C)C)sc2-c2ccnc(NCC(C)CC(=O)O)n2)c1F (stereo not shown) [6-265, 4-((4-(2-(tert-butyl)-4-(5-chloro-2-fluoro-3-(propylsulfonamido)phenyl)thiazol-5-yl)pyrimidin-2-yl)amino)-3-methylbutanoic acid] | –
– | – | 0.301 ± 0.0399 µM | > 1 µM | 0.246 ± 0.00873 µM | CCCS(=O)(=O)Nc1cc(Cl)cc(-c2nc(C(C)(C)C)sc2-c2ccnc(NCC(C)C(F)C(=O)O)n2)c1F (stereo not shown) [8-41, 4-((4-(2-(tert-butyl)-4-(5-chloro-2-fluoro-3-(propylsulfonamido)phenyl)thiazol-5-yl)pyrimidin-2-yl)amino)-2-fluoro-3-methylbutanoic acid] | –
– | – | 0.0382 ± 0.00329 µM | 5.13 ± 0.382 µM | 0.0511 ± 0.00135 µM | CCCS(=O)(=O)Nc1cc(Cl)cc(-c2nc(C(C)(C)C)sc2-c2ccnc(NCC[C@@H](C)CC(=O)O)n2)c1F [8-43, (R)-5-((4-(2-(tert-butyl)-4-(5-chloro-2-fluoro-3-(propylsulfonamido)phenyl)thiazol-5-yl)pyrimidin-2-yl)amino)-3-methylpentanoic acid] | –
13.2 ± 6.02 nm/s | 147 ± 18 nm/s | 0.00517 ± 0.000412 µM | – | – | COC(=O)N[C@@H](C)CNc1nccc(-c2cn(C(C)C)nc2-c2cc(Cl)cc(NS(C)(=O)=O)c2F)n1 [Encorafenib, reference compound] | Kp at 60 min [1]: 0.0014 to 0.0069; ER (efflux ratio) (P-gp; MDR1-MDCK): 21.8
